Measured values from BindingDB's records for patent US20240002388 (Hutchison Medipharma, 2024).

Target: T1, Receptor-interacting serine/threonine-protein kinase 1 (Homo sapiens, UniProt Q13546)
T1 sequence (Q13546 whole entry): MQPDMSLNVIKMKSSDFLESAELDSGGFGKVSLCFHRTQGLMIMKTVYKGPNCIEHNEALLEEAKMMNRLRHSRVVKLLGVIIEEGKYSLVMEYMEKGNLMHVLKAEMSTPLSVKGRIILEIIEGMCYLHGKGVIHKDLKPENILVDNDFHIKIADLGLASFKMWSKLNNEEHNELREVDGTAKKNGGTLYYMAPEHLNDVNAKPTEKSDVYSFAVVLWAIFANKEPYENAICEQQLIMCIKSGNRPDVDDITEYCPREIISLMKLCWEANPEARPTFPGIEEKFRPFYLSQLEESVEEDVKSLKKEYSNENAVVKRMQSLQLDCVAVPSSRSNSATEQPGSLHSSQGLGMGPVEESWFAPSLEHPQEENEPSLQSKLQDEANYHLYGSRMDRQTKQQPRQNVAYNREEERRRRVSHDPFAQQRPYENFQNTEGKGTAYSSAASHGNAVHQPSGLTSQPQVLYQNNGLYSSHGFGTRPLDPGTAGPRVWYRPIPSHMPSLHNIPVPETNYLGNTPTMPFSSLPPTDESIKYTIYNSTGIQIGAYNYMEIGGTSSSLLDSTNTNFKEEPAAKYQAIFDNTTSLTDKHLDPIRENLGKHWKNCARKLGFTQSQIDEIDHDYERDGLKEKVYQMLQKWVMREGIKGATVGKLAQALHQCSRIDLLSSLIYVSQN
Assay: RIPK1 Kinase Activity Assay
Protocol: ADP-Glo Kinase kit can be used to measure ADP level in kinase activity assay so as to distinguish the inhibitory effects of different compounds on RIPK1 kinase activity. The ADP-Glo assay was usually divided into three steps. Firstly, the kinase converted ATP to ADP and phosphorylated the substrate at the same time; secondly, ATP digestion reagent was added to degrade all ATP in the reaction system; finally, a detection reagent was added to reduce ADP to ATP, and energy from ATP was transferred to […] which thus emitting a chemical luminescence that can be detected. Assay procedure can refer to manufacture's technical manual.(2) Reagent Preparation:1.33× kinase buffer: 5× kinase buffer stock (250 mM of NaCl, 150 mM of MgCl2, 2.5 mg/ml BSA (bovine serum albumin), 0.1% CHAPS (3-[(3-cholamidopropyl)-dimethyl-ammonio]-1-propane sulfonate), and 5 mM of dithiothreitol) was diluted with water to 1.33× kinase buffer;RIPK1 enzyme solution: the kinase was dissolved in 1.33× kinase buffer to make 40 nM as the final working concentration;ATP solution: 10 mM ATP stock solution in water was dissolved in 1.33× kinase buffer to make 10 μM as the final working concentration;4× compound preparation: the compound was diluted in a 3-fold gradient, and finally 4% DMSO aqueous solution containing different concentrations of the compound was obtained. […]

For `CC(C)n1cncc(-c2ccc(C3(NC(=O)c4nnc(Cc5ccccc5)[nH]4)CC3)cc2)c1=O` [US20240002388, Compound 14], the IC50 was 18 nM.
